This note sets out measurements from patent US20050118224A1, “Edible pesticidal formulations” (priority 2001, published 2005).

The data set is described as follows: Chlorpyrifos loss from liquid blends with oleophilic phase candidates, 70° C. for 70 h. The format is physicochemical. Particulars: 1.2 g chlorpyrifos in 9 g candidate, on aluminium foil. Here is the method:
1.2 g of chlorpyrifos was added to 9 g of each alternative oleophilic candidate (see Table 14). 1.02 g of this liquid blend was then placed onto aluminium foil within a glass Petrie dish. The control was molten chlorpyrifos alone. Samples were then placed in a fan forced oven at 70° C. for 70 h before being removed and analysed for chlorpyrifos content.

In the case of `CCOP(=S)(OCC)Oc1nc(Cl)c(Cl)cc1Cl` [No oleophilic phase, chlorpyrifos], the “Chlorpyrifos loss (%)” value came out at 37%.
